System: HUVEC
Assay: HUVEC proliferation by BrdU incorporation
Format: cell-based, human
Settings: over a period of 24 hours; 10 ng/ml VEGF or 1 μM sphingosine-1-phosphate
Procedure: Cell proliferation: Endothelial cell proliferation was determined by measuring the incorporation of bromodeoxyuridine (BrdU). Endothelial cells were plated onto 96-well plates and incubated for 12 hours after which the medium was changed to MCDB-131 containing 0.05% FCS. Cells were then incubated for 24 hours in the absence or presence of stimuli or competitors. BrdU was added to the medium during the last 6 hours of incubation. The cells were then fixed and cell proliferation was quantified with a standardized calorimetric immunoassay (Roche Diagnostics, Mannheim, Germany) according to the manufacturer's instructions.

| Compound | increase of DNA synthesis in HUVEC |
| --- | --- |
| VEGF | approximately two-fold |
| CCCCCCCCCCCCC/C=C/[C@@H](O)[C@@H](N)COP(=O)(O)O [sphingosine-1-phosphate] | approximately two-fold |
